{"source": "patent US8932997B2", "about": "“Anti-accretion agents for drilling fluids” (Lamberti SpA, priority 2008, dated 2015)", "key": {"[1]": {"experiment": "Anti-accretion test (hot roll cells with steel bars and shale chips)", "details": "additive amount per 350 ml test fluid as in fluid description; 50 g Arne clay chips; rolled 30 minutes at room temperature"}, "[2]": {"tested_on": "Skeletonema costatum", "experiment": "Marine algal growth inhibition test (ISO/DP 10253)", "assay_type": "cell-based", "details": "concentrations 0.1 to 100.0 mg/l seawater", "method": "The test was carried out according the ISO protocol ISO/DP 10253—Water quality—Marine algal growth inhibition test with Skeletonema costatum and Phaeodactylum tricornutum.\nA culture of the marine algae Skeletonema costatum was exposed to a series of test concentrations of Additive 1 In addition to a control test, concentrations ranging from 0.1 to 100.0 mg/I seawater were tested. The test lasted for 72 hours, and EC50 (72 hours) was calculated to be higher than 10.0 mg/litre."}}, "data": [{"compound": "[Cl-].[K+]", "note": "[KCl, potassium chloride, reference compound]", "values": [{"measurement": "accretion % (wt % of shale accreted on metal surface)", "setting": "[1]", "result": ">70", "unit": "%"}]}, {"compound": "triethanolamine trioleate [Additive 1]", "values": [{"measurement": "EC50 (72 hours) algal growth inhibition", "setting": "[2]", "result": "higher than 10.0 mg/litre"}, {"measurement": "accretion % (wt % of shale accreted on metal surface)", "setting": "[1]", "result": 10, "unit": "%"}]}]}
